Measurements reported in patent publication US20240148940A1, “METHODS OF INHIBITION” (Queensland Eye Institute Foundation, priority 2022, published 2024).

Columns and labels:
[1] = system: isolated porcine aortic adventitia subjected to collagenase; assay: Uniaxial tensile testing of enzymatically degraded (collagenolysis) isolated porcine aortic adventitia; conditions: collagenase 20 U/mL, 8 or 20 hours, UV-A 365 nm, 45 mW/cm^2, 10 minutes
Method: An Instron Materials Testing System Model #5943 (Instron, Norwood, MA, USA), equipped with a 50-N load cell, was used to measure uniaxially the tensile properties of isolated adventitia specimens (n=30), prior to and after irradiation. Irradiation was conducted in the presence of a solution of riboflavin 5′-phosphate monosodium salt in saline in accordance with the procedure of Example 1. Before measurements, each specimen was soaked in phosphate buffered saline (PBS) for at least 1 hour at room temperature. Strips (1 cm×3 cm) were cut, and their thickness and width were measured with a digital caliper (Digimax Global Inc., Toronto, Canada). Thirty measurements for specimens in each set of samples (non-irradiated and irradiated) were carried out along the longitudinal direction at a set gauge distance of 16 mm and a speed of 10 mm/min. The values for Young's moduli were computed from the recorded stress-strain plots in the linear region.
Thirty porcine adventitial specimens were isolated and exposed to UV-A radiation as described in Example 1. Irradiation was conducted in the presence of a solution of riboflavin 5′-phosphate monosodium salt in saline in accordance with the procedure of Example 1. Non-irradiated and irradiated adventitial specimens, as sets of 10 pieces each (5 cm×3 cm), were soaked in saline for 1 hour with gentle shaking, and then placed into the wells of 6-well plates. A solution containing 20 U/mL (˜0.08 mg/mL) collagenase was prepared in Tris buffer (0.05 M, pH 7.4), which also contained calcium chloride (10 mM) and sodium azide (0.02%). To each well, 5 mL of this solution was added to cover the samples. The well plates were placed in an orbital shaker and shaken at 160 rpm for either 8 hours or 20 hours at 37° C. […]
The three sets of adventitial specimens designated as (1), (2) and (3) in Example 5 were evaluated by uniaxial tensile testing following the procedure described in Example 2. […]

[2] = system: isolated porcine aortic adventitia; assay: Uniaxial tensile measurements on isolated porcine aortic adventitia, irradiated vs non-irradiated; conditions: 0.1% w/v in saline, UV-A 365 nm, 45 mW/cm^2, 10 minutes, both sides, n=30
Method: Twenty-five porcine aortas from the abdominal region were used in this study, sourced from an abattoir. The aorta specimens were processed by first removing the extraneous adipose and loose connective tissue debris from the external surface using surgical scissors. One cut was then performed along the longitudinal axis of each aortic tube, in order to obtain flat rectangular sheets. A surgical scalpel was used to make an initial cornerwise-interstitial incision between adventitia and media layers, and the adventitial layer was carefully dissected and peeled off by hand. […] The irradiance at the exposure site was monitored with the radiometer Dymax ACCU-CAL 50 (Dymax Corp., Torrington, CT, USA). […]
An Instron Materials Testing System Model #5943 (Instron, Norwood, MA, USA), equipped with a 50-N load cell, was used to measure uniaxially the tensile properties of isolated adventitia specimens (n=30), prior to and after irradiation. […] Strips (1 cm×3 cm) were cut, and their thickness and width were measured with a digital caliper (Digimax Global Inc., Toronto, Canada). […] The values for Young's moduli were computed from the recorded stress-strain plots in the linear region.
Irradiation was conducted in the presence of a solution of riboflavin 5′-phosphate monosodium salt in saline in accordance with the procedure of Example 1. The results were expressed as mean values±standard error of the mean. […]

[3] = system: isolated porcine aortic adventitia; assay: Biaxial tensile measurements on isolated porcine aortic adventitia; conditions: 25% stretch, UV-A 365 nm, 45 mW/cm^2, 10 minutes, n=23
Method: Twenty-three porcine aortas from the abdominal region were used in this study and processed initially as described in Example 1. Irradiation was conducted in the presence of a solution of riboflavin 5′-phosphate monosodium salt in saline in accordance with the procedure of Example 1. The isolated adventitial specimens were then cut into squares of 14 mm×14 mm, and thickness was measured with a digital caliper at three spots and averaged. The tensile properties were measured and recorded biaxially in the CS BioTester™ 5000 biotesting system (CellScale Biomaterials Testing, Waterloo, ON, Canada), equipped with two 2.5-N load cells, using a set of four BioRakes™ that consisted each of 5 tungsten tines spaced evenly. All samples were submerged in a temperature-controlled bath containing PBS at 37° C., and tested by stretching the gripped area (11 mm×11 mm) to 25% of total stretch, at a rate of 1%/s. The samples were preconditioned for 10 cycles, and the tenth cycle was used for subsequent analysis. Assuming that tissue was incompressible and had negligible shear components, the Cauchy stress (σ) was determined with the equations: […]
In these equations, F is the measured load, λ is the stretch, X is the initial length, T is the averaged initial thickness of the tissue sample. […] The stretch was calculated as follows: […]
These characteristics were evaluated for 25% stretch (strain). […]

Young's modulus (stiffness) vs degradation time, samples first irradiated then subjected to collagenolysis (I/D) compared with D and D/I ([1]; 37° C., n=30): highest
ultimate stress (strength) vs degradation time, samples first irradiated then subjected to collagenolysis (I/D) compared with D and D/I ([1]; 37° C., n=30): highest
statistical differences between degraded non-irradiated samples (D) and those irradiated after degradation (D/I), modulus and stress ([1]; p~0.2-0.5): low significance
Compound: Cc1cc2nc3c(=O)[nH]c(=O)nc-3n(C[C@H](O)[C@H](O)[C@H](O)COP(=O)([O-])O)c2cc1C.[Na+] [riboflavin 5′-phosphate monosodium salt]
Young's modulus (stiffness), difference between non-irradiated and irradiated specimens ([2]; p=0.0012): statistically significant
ultimate stress (maximum load at the time of rupture), difference between non-irradiated and irradiated specimens ([2]; p=0.0015): statistically significant
Cauchy stress, difference between non-irradiated and irradiated specimens ([3]; circumferential (p=1.4×10^−3) and longitudinal (p=5.3×10^−4)): high level of statistical significance
tangent modulus (stiffness), difference between non-irradiated and irradiated specimens ([3]; circumferential (p=6.8×10^−5) and longitudinal (p=7.1×10^−5)): high level of statistical significance
